Structures can show the parent of a compound that is named as a salt.
Experiments:
Assay type in all cases: physicochemical
aqueous solubility = assay: aqueous solubility
pH in aqueous solution = conditions: (native) pH of the aqueous solution of the salt
[1] = hygroscopicity at relative humidity

Row | Structure (SMILES) | aqueous solubility (aqueous solubility) | pH in aqueous solution (pH in aqueous solution) | hygroscopicity ([1]; at 100% relative humidity) | hygroscopicity ([1]; at 90% relative humidity)
1 | CN[C@H]1CC[C@@H](c2ccc(Cl)c(Cl)c2)c2ccccc21 [sertraline (−)-camphor-10-sulfonic acid salt] [(−)-Camphor-10-sulfonic Acid Salt of Sertraline] | 1500 µg/mL | 4.6 | approximately 0.4% | 
2 | CN[C@H]1CC[C@@H](c2ccc(Cl)c(Cl)c2)c2ccccc21 [sertraline L-tartaric acid salt, L-Tartaric Acid Salt of Sertraline] | 4800 µg/mL | 3.0 | less than 0.1% | 
3 | CN[C@H]1CC[C@@H](c2ccc(Cl)c(Cl)c2)c2ccccc21 [sertraline benzenesulfonic acid salt, Benzenesulfonic Acid Salt of Sertraline] | 900 µg/mL | 4.6 |  | approximately 0.3%
4 | CN[C@H]1CC[C@@H](c2ccc(Cl)c(Cl)c2)c2ccccc21 [sertraline benzoic acid salt, Benzoic Acid Salt of Sertraline] | 520 µg/mL | 5.2 | approximately 0.1% | 

Results, then the molecule that gave them:

Row | aqueous solubility (aqueous solubility) | pH in aqueous solution (pH in aqueous solution) | hygroscopicity ([1]; at 100% relative humidity) | hygroscopicity ([1]; at 90% relative humidity) | Structure (SMILES)
5 | 2800 µg/mL | 3.4 |  | approximately 0.3% | CN[C@H]1CC[C@@H](c2ccc(Cl)c(Cl)c2)c2ccccc21 [sertraline fumaric acid salt, Fumaric Acid Salt of Sertraline]
6 | 400 µg/mL | 4.1 |  | approximately 0.1% | CN[C@H]1CC[C@@H](c2ccc(Cl)c(Cl)c2)c2ccccc21 [sertraline p-toluenesulfonic acid salt, P-Toluenesulfonic Acid Salt of Sertraline]
